In ChEMBL document CHEMBL3044865, “Herbicidal Activity and Characteristics of Pyraflufen-ethyl for Controlling Broad-leaved Weeds in Cereals” (J Pestic Sci, 2002):
The source made the active and inactive calls. The calls are words filed in the database; no cut-off is given here.

Columns and labels:
Veronica hederifolia [1] = test: Herbicidal activity against Veronica hederaefolia assessed as killing at 3 g/ha post emergence application measured after 21 days after treatment; type: functional
Stellaria media [2] = test: Herbicidal activity against Stellaria media assessed as killing at 0.3 g/ha post emergence application measured after 21 days after treatment; type: functional
Viola arvensis [3] = test: Herbicidal activity against Viola arvensis assessed as killing at 30 g/ha post emergence application measured after 21 days after treatment; type: functional
Alopecurus myosuroides [4] = test: Herbicidal activity against Alopecurus myosuroides assessed as killing at 1 g/ha post emergence application measured after 21 days after treatment; type: functional, organism-based
Alopecurus myosuroides [5] = test: Herbicidal activity against Alopecurus myosuroides assessed as killing at 3 g/ha post emergence application measured after 21 days after treatment; type: functional
Alopecurus myosuroides [6] = test: Herbicidal activity against Alopecurus myosuroides assessed as killing at 300 g/ha post emergence application measured after 21 days after treatment; type: functional
Galium aparine [7] = test: Herbicidal activity against Galium aparine assessed as killing at 10 g/ha post emergence application measured after 21 days after treatment; type: functional
Stellaria media [8] = test: Herbicidal activity against Stellaria media assessed as killing at 3 g/ha post emergence application measured after 21 days after treatment; type: functional
Viola arvensis [9] = test: Ratio of compound ED90 to necoprop-p ED90 for herbicidal activity against Viola arvensis
Viola arvensis [10] = test: Herbicidal activity against Viola arvensis assessed as killing at 5 g/ha measured after 21 days after treatment under greenhouse by time-course analysis; type: functional
[11] = target: T1, Protoporphyrinogen oxidase, chloroplastic (Nicotiana tabacum) (UniProt O24163); test: Inhibition of Galium aparine protoporphyrinogen oxidase by post-emergence herbicidal activity assay
T1 sequence (whole entry): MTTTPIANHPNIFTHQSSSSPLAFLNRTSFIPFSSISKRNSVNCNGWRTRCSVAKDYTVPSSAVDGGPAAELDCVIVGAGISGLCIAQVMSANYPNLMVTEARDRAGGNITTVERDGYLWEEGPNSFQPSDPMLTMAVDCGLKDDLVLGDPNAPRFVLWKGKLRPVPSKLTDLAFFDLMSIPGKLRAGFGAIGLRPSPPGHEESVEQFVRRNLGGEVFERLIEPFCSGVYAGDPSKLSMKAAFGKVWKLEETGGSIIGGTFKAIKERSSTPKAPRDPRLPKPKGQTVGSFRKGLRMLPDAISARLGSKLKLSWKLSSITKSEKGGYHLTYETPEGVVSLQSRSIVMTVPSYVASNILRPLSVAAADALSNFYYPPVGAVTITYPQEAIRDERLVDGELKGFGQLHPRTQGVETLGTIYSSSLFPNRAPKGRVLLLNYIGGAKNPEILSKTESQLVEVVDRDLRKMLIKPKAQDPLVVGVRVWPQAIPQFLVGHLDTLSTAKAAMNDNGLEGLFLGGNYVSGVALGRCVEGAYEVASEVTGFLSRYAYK

Galium aparine [12] = test: Herbicidal activity against Galium aparine assessed as killing at 300 g/ha post emergence application measured after 21 days after treatment; type: functional
Triticum aestivum [13] = test: Phytotoxicity in Triticum aestivum (wheat) assessed as injury at 0.3 g/ha post emergence application measured after 21 days after treatment; type: organism-based; settings: in vivo, other, 504 h
Viola arvensis [14] = test: Herbicidal activity against Viola arvensis assessed as killing at 10 g/ha post emergence application measured after 21 days after treatment; type: functional
Viola arvensis [15] = test: Herbicidal activity against Viola arvensis assessed as killing at 0.3 g/ha post emergence application measured after 21 days after treatment; type: functional
[16] = target: T2, Protoporphyrinogen oxidase (Medicago truncatula) (UniProt G7L3C0); test: Inhibition of Viola arvensis protoporphyrinogen oxidase by post-emergence herbicidal activity assay
T2 sequence (whole entry): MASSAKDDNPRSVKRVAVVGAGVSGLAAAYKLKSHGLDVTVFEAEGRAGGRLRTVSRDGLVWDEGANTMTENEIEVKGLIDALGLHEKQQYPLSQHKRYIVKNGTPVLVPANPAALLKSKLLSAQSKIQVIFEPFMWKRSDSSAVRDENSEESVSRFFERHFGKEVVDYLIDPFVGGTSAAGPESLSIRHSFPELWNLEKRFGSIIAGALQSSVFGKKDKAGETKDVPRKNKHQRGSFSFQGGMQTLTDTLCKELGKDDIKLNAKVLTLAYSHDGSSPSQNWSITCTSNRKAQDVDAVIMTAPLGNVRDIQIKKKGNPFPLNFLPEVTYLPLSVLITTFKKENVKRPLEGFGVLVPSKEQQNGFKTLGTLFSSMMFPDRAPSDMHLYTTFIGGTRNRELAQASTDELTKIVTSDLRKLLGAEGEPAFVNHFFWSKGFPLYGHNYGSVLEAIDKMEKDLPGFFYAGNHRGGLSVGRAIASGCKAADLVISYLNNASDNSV

Veronica hederifolia [17] = test: Herbicidal activity against Veronica hederaefolia assessed as killing at 30 g/ha post emergence application measured after 21 days after treatment; type: functional
Avena fatua [18] = test: Herbicidal activity against Avena fatua assessed as killing at 0.3 g/ha post emergence application measured after 21 days after treatment; type: functional, organism-based
Veronica hederifolia [19] = test: Herbicidal activity against Veronica hederaefolia assessed as killing at 100 g/ha post emergence application measured after 21 days after treatment; type: functional
[20] = target: T1, Protoporphyrinogen oxidase, chloroplastic (Nicotiana tabacum); test: Inhibition of Veronica hederaefolia protoporphyrinogen oxidase by post-emergence herbicidal activity assay; settings: Veronica hederifolia
Avena fatua [21] = test: Herbicidal activity against Avena fatua assessed as killing at 3 g/ha post emergence application measured after 21 days after treatment; type: functional
Avena fatua [22] = test: Herbicidal activity against Avena fatua assessed as killing at 10 g/ha pre emergence application measured after 21 days after treatment; type: functional, organism-based
Veronica hederifolia [23] = test: Herbicidal activity against Veronica hederaefolia assessed as killing at 1 g/ha post emergence application measured after 21 days after treatment; type: functional
[24] = target: T3, Protoporphyrinogen IX oxidase (Cichorium intybus) (UniProt Q9SPL6); test: Inhibition of Tripleurospermum maritimum subsp. inodorum protoporphyrinogen oxidase by post-emergence herbicidal activity assay
T3 sequence (whole entry): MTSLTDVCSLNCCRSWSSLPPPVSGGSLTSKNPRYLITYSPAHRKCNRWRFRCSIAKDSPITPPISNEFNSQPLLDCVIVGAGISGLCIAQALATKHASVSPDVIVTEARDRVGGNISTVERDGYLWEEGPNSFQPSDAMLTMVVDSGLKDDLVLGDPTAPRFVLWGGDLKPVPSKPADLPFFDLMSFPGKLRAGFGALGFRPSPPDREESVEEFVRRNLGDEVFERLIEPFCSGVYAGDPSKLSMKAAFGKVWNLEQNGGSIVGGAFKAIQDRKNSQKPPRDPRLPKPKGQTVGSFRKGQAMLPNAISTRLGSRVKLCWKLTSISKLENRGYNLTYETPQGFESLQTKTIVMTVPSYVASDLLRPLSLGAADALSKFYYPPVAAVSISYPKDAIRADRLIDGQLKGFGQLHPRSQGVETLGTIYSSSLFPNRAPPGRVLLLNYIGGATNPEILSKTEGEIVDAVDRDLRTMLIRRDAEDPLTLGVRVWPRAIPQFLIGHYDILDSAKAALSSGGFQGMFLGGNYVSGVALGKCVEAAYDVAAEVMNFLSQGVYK

Triticum aestivum [25] = test: Phytotoxicity in Triticum aestivum (wheat) assessed as injury at 300 g/ha pre emergence application measured after 21 days after treatment; type: organism-based; settings: in vivo, other, 504 h

For `CCOC(=O)COc1cc(-c2nn(C)c(OC(F)F)c2Cl)c(F)cc1Cl` [PYRAFLUFEN-ETHYL], which Activity (Veronica hederifolia [1]) is on record?
Its Activity is 100%.

And the Activity (Stellaria media [2])?
Its Activity is 90%.

And the Activity (Viola arvensis [3])?
Its Activity is 40%.

What about the Activity (Alopecurus myosuroides [4]) of the same compound?
Its Activity is “inactive”.

What about the Activity (Alopecurus myosuroides [5]) of the same compound?
The Activity was 1%.

What about the Activity (Alopecurus myosuroides [6]) of the same compound?
Its Activity is 1%.

What about the Activity (Galium aparine [7]) of the same compound?
Its Activity is 100%.

What about the Activity (Stellaria media [8]) of the same compound?
Its Activity is 100%.

And the Ratio (Viola arvensis [9])?
The Ratio was 200.

And the Activity (Viola arvensis [10])?
Its Activity is 90%.

What about the ED90 [11] of the same compound?
Its ED90 is 1.5 gAi/ha.

And the Activity (Galium aparine [12])?
The Activity was 50%.

What about the Activity (Triticum aestivum [13]) of the same compound?
The Activity was “Non-toxic”.

And the Activity (Viola arvensis [14])?
Its Activity is 100%.

What about the Activity (Viola arvensis [15]) of the same compound?
The Activity was 21%.

And the ED90 [16]?
The ED90 was 5 gAi/ha.

And the Activity (Veronica hederifolia [17])?
The Activity was 11%.

And the Activity (Avena fatua [18])?
The Activity was “inactive”.

What about the Activity (Veronica hederifolia [19]) of the same compound?
Its Activity is 21%.

And the ED90 [20]?
Its ED90 is 1 gAi/ha.

What about the Activity (Avena fatua [21]) of the same compound?
The Activity was 1%.

What about the Activity (Avena fatua [22]) of the same compound?
The Activity was “inactive”.

What about the Activity (Veronica hederifolia [23]) of the same compound?
Its Activity is 90%.

And the ED90 [24]?
The ED90 was 0.3 gAi/ha.

What about the Activity (Triticum aestivum [25]) of the same compound?
The Activity was 11%.
